Source: patent US11279733B2, “Peptide antibiotics” (priority 2017, dated 2022)
Converted amounts (≈) assume the structure as drawn. Like-named read-outs stand apart in the source and are kept apart here. Positions of bridges follow the written chain, without caps; N, C: chain ends. Non-standard residues stand in square brackets, D forms with d. Residues, ends and D or L forms follow the SMILES beside them. *: point of attachment. Decanoyl(3R-OH) = CCCCCCC[C@@H](O)CC(=O)*; dPhe(4-NH2) = Nc1ccc(C[C@@H](N)C(=O)O)cc1; d3Pal = N[C@H](Cc1cccnc1)C(=O)O; X4 = CCCCCOc1ccc(C(=O)*)cc1; Nonanoyl = CCCCCCCCC(=O)*; dDab = NCC[C@@H](N)C(=O)O; Octanoyl = CCCCCCCC(=O)*; X8 = CC(C)CCCC(C)CC(=O)*; dDap = NC[C@@H](N)C(=O)O; Dab = NCC[C@H](N)C(=O)O

Key:
A. baumannii ATCC 19606 = settings: ATCC 19606
Procedure: (§1) Bacteria were either obtained from American Type Culture Collection (ATCC; Manassas, Va., USA) or independent academic clinical isolate collections, as listed in Table 18 below. Bacteria were cultured in Nutrient broth (NB; Bacto Laboratories, catalogue No. 234000) or Mueller Hinton broth (MHB; Bacto Laboratories, catalogue No. 211443) at 37° C. overnight with shaking (˜180 RPM). A sample of each culture was then diluted 50-fold in fresh MHB and incubated at 37° C. for 2-3 h with shaking (˜180 RPM). Compound stock solutions were prepared as 0.64 mg/mL or 2.56 mg/mL in water. The compounds, at twice the final desired concentration, were serially diluted 2-fold across the wells of 96-well plates (Polystyrene, Corning, catalogue No. 3370). Mid-log phase bacterial cultures (after 2-3 h incubation) were diluted to a final concentration of 1×10^6 colony forming units (CFU)/mL, and 50 μL was added to each well giving a final cell density of 5×10^5 and a compound concentration range of 32 μg/mL to 0.015 μg/mL (128-0.06 μg/mL against P. aeruginosa PA9704).

A. baumannii GN_093 PmxR = settings: GN 093 PmxR
Procedure: as §1

E. coli ATCC 25922 = settings: ATCC 25922
Procedure: as §1

K. pneumoniae ATCC 13883 = settings: ATCC 13883
Procedure: as §1

[1] = system: K. pneumoniae ATCC 700603, MDR; settings: ATCC 700603
Procedure: as §1

[2] = system: K. pneumoniae ATCC BAA-2146, NDM-1 pos; settings: ATCC BAA-2146
Procedure: as §1

[3] = system: K. pneumoniae GN_102 PmxR; settings: GN 102 PmxR
Procedure: as §1

[4] = system: K. pneumoniae GN_106, PmxR; settings: GN 106, PmxR
Procedure: as §1

P. aeruginosa ATCC 27853 = settings: ATCC 27853
Procedure: as §1

[5] = system: P. aeruginosa GN_043, PmxR
Procedure: as §1

[6] = system: P. aeruginosa GN_105, PmxR; settings: GN 105, PmxR
Procedure: as §1

[7] = system: S. aureus ATCC 25923, MSSA; settings: ATCC 25923
Procedure: as §1

Row | Structure (SMILES) | MIC A. baumannii ATCC 19606 (A. baumannii ATCC 19606) [µg/mL] | MIC A. baumannii GN_093 PmxR (A. baumannii GN_093 PmxR) [µg/mL] | MIC E. coli ATCC 25922 (E. coli ATCC 25922) [µg/mL] | MIC K. pneumoniae ATCC 13883 (K. pneumoniae ATCC 13883) [µg/mL] | MIC K. pneumoniae ATCC 700603, MDR [1] [µg/mL] | MIC K. pneumoniae ATCC BAA-2146, NDM-1 pos [2] [µg/mL] | MIC K. pneumoniae GN_102 PmxR [3] [µg/mL] | MIC K. pneumoniae GN_106, PmxR [4] [µg/mL] | MIC P. aeruginosa ATCC 27853 (P. aeruginosa ATCC 27853) [µg/mL] | MIC P. aeruginosa GN_105, PmxR [6] [µg/mL] | MIC S. aureus ATCC 25923, MSSA [7] [µg/mL] | MIC, A. baumannii ATCC 19606 (A. baumannii ATCC 19606) [µg/mL] | MIC, E. coli ATCC 25922 (E. coli ATCC 25922) [µg/mL] | MIC, K. pneumoniae ATCC 13883 (K. pneumoniae ATCC 13883) [µg/mL] | MIC, K. pneumoniae ATCC 700603, MDR [1] [µg/mL] | MIC, K. pneumoniae ATCC BAA-2146, NDM-1 pos [2] [µg/mL] | MIC, P. aeruginosa ATCC 27853 (P. aeruginosa ATCC 27853) [µg/mL] | MIC P. aeruginosa GN_043, PmxR ([5]; Table 6, polymyxin-resistant) [µg/mL] | MIC, S. aureus ATCC 25923, MSSA [7] [µg/mL] | also measured
1 | CC(C)CCCC(C)CC(=O)N[C@H](CCN)C(=O)N[C@H]1CCNC(=O)[C@H](CC(C)C)NC(=O)[C@H](CCN)NC(=O)[C@H](CCN)NC(=O)[C@H](CC(C)C)NC(=O)[C@@H](Cc2ccccc2)NC(=O)[C@H](CCN)NC1=O (stereo partly drawn) [compound 6523, 3,7-dimethyloctanoic acid-D-Dab-cyc[L-Dab-L-Dab-D-Phe-L-Leu-L-Dab-L-Dab-L-Leu]] (X8-[dDab][Dab][Dab][dF]L[Dab][Dab]L; lactam 2-C) | >32 | 16 (≈ 15.6 µM) | 1 (≈ 0.972 µM) | 4 (≈ 3.89 µM) | 8 (≈ 7.78 µM) | 8 (≈ 7.78 µM) | 16 (≈ 15.6 µM) | 32 (≈ 31.1 µM) | 2 (≈ 1.94 µM) | 2 (≈ 1.94 µM) | 32 (≈ 31.1 µM) |  |  |  |  |  |  |  |  | MIC P. aeruginosa GN_043, PmxR [5]: 2 µg/mL (≈ 1.94 µM)
2 | CCCCCCC[C@@H](O)CC(=O)N[C@H](Cc1ccc(N)cc1)C(=O)N[C@H]1CCNC(=O)[C@H](CC(C)C)NC(=O)[C@H](CCN)NC(=O)[C@H](CCN)NC(=O)[C@H](CC(C)C)NC(=O)[C@@H](Cc2ccccc2)NC(=O)[C@H](CCN)NC1=O [compound 6444, 3(R)OH-nC9CO-D-4NH2Phe-cyc[L-Dab-L-Dab-D-Phe-L-Leu-L-Dab-L-Dab-L-Leu]] ({Decanoyl(3R-OH)}-[dPhe(4-NH2)][Dab][Dab][dF]L[Dab][Dab]L; lactam 2-C) |  | 32 (≈ 28.9 µM) |  |  |  |  | 8 (≈ 7.23 µM) | 8 (≈ 7.23 µM) |  | 16 (≈ 14.5 µM) |  | 32 (≈ 28.9 µM) | 8 (≈ 7.23 µM) | 8 (≈ 7.23 µM) | 8 (≈ 7.23 µM) | 8 (≈ 7.23 µM) | 16 (≈ 14.5 µM) | 32 (≈ 28.9 µM) | >32 | 
3 | CCCCCCC[C@@H](O)CC(=O)NCC(=O)N[C@H]1CCNC(=O)[C@H](CC(C)C)NC(=O)[C@H](CCN)NC(=O)[C@H](CCN)NC(=O)[C@H](CC(C)C)NC(=O)[C@@H](Cc2ccccc2)NC(=O)[C@H](CCN)NC1=O [compound 6446, 3(R)OH-nC9CO-Gly-cyc[L-Dab-L-Dab-D-Phe-L-Leu-L-Dab-L-Dab-L-Leu]] ({Decanoyl(3R-OH)}-G[Dab][Dab][dF]L[Dab][Dab]L; lactam 2-C) |  | 32 (≈ 32 µM) |  |  |  |  | 4 (≈ 3.99 µM) | 8 (≈ 7.99 µM) |  | 4 (≈ 3.99 µM) |  | 32 (≈ 32 µM) | 8 (≈ 7.99 µM) | 8 (≈ 7.99 µM) | 8 (≈ 7.99 µM) | 8 (≈ 7.99 µM) | 4 (≈ 3.99 µM) | 4 (≈ 3.99 µM) | >32 | 
4 | CCCCCCC[C@@H](O)CC(=O)N[C@H](Cc1cccnc1)C(=O)N[C@H]1CCNC(=O)[C@H](CC(C)C)NC(=O)[C@H](CCN)NC(=O)[C@H](CCN)NC(=O)[C@H](CC(C)C)NC(=O)[C@@H](Cc2ccccc2)NC(=O)[C@H](CCN)NC1=O [compound 6445, 3(R)OH-nC9CO-D-3PyPhe-cyc[L-Dab-L-Dab-D-Phe-L-Leu-L-Dab-L-Dab-L-Leu]] ({Decanoyl(3R-OH)}-[d3Pal][Dab][Dab][dF]L[Dab][Dab]L; lactam 2-C) |  | >32 |  |  |  |  | 8 (≈ 7.32 µM) | 4 (≈ 3.66 µM) |  | 8 (≈ 7.32 µM) |  | 32 (≈ 29.3 µM) | 8 (≈ 7.32 µM) | 4 (≈ 3.66 µM) | 8 (≈ 7.32 µM) | 8 (≈ 7.32 µM) | 16 (≈ 14.6 µM) | 8 (≈ 7.32 µM) | >32 | 
5 | CCCCCCCC(=O)N[C@H](CN)C(=O)N[C@H]1CCNC(=O)[C@H](CC(C)C)NC(=O)[C@H](CCN)NC(=O)[C@H](CCN)NC(=O)[C@H](CC(C)C)NC(=O)[C@@H](CC(C)C)NC(=O)[C@H](CCN)NC1=O [compound 8978, nC7CO-D-Dap-cyc[L-Dab-L-Dab-D-Leu-L-Leu-L-Dab-L-Dab-L-Leu]] (Octanoyl-[dDap][Dab][Dab][dL]L[Dab][Dab]L; lactam 2-C) | 32 (≈ 33.6 µM) | 8 (≈ 8.4 µM) | 4 (≈ 4.2 µM) | 16 (≈ 16.8 µM) | 16 (≈ 16.8 µM) | 16 (≈ 16.8 µM) | 32 (≈ 33.6 µM) | 32 (≈ 33.6 µM) | 2 (≈ 2.1 µM) | 2 (≈ 2.1 µM) | >32 |  |  |  |  |  |  |  |  | MIC P. aeruginosa GN_043, PmxR ([5]; P. aeruginosa GN_043, PmxR): 4 µg/mL (≈ 4.2 µM)
6 | CCCCCOc1ccc(C(=O)N[C@H](CCN)C(=O)N[C@H]2CCNC(=O)[C@H](CC(C)C)NC(=O)[C@H](CCN)NC(=O)[C@H](CCN)NC(=O)[C@H](CC(C)C)NC(=O)[C@@H](Cc3ccccc3)NC(=O)[C@H](CCN)NC2=O)cc1 [compound 6528, 4-(pentyloxy)benzoic acid-D-Dab-cyc[L-Dab-L-Dab-D-Phe-L-Leu-L-Dab-L-Dab-L-Leu]] (X4-[dDab][Dab][Dab][dF]L[Dab][Dab]L; lactam 2-C) | >32 | 32 (≈ 30.1 µM) | 2 (≈ 1.88 µM) | 8 (≈ 7.52 µM) | 16 (≈ 15 µM) | 8 (≈ 7.52 µM) | >32 | 32 (≈ 30.1 µM) | 1 (≈ 0.94 µM) | 4 (≈ 3.76 µM) | 32 (≈ 30.1 µM) |  |  |  |  |  |  |  |  | MIC P. aeruginosa GN_043, PmxR [5]: 1 µg/mL (≈ 0.94 µM)
7 | CCCCCCC[C@@H](O)CC(=O)N[C@@H](CCCCN)C(=O)N[C@H]1CCNC(=O)[C@H](CC(C)C)NC(=O)[C@H](CCN)NC(=O)[C@H](CCN)NC(=O)[C@H](CC(C)C)NC(=O)[C@@H](Cc2ccccc2)NC(=O)[C@H](CCN)NC1=O [compound 5562, 3(R)OH-nC9CO-L-Lys-cyc[L-Dab-L-Dab-D-Phe-L-Leu-L-Dab-L-Dab-L-Leu]] ({Decanoyl(3R-OH)}-K[Dab][Dab][dF]L[Dab][Dab]L; lactam 2-C) |  | 32 (≈ 29.8 µM) |  |  |  |  | 4 (≈ 3.73 µM) | 4 (≈ 3.73 µM) |  | >32 |  | >32 | 8 (≈ 7.46 µM) | 8 (≈ 7.46 µM) | 4 (≈ 3.73 µM) | 8 (≈ 7.46 µM) | 2 (≈ 1.86 µM) | 4 (≈ 3.73 µM) | 32 (≈ 29.8 µM) | 
8 | CCCCCCCCC(=O)N[C@@H](CCN)C(=O)N[C@H](C(=O)N[C@@H](CCN)C(=O)N[C@H]1CCNC(=O)[C@H](Cc2c[nH]c3ccccc23)NC(=O)[C@H](CCN)NC(=O)[C@H](CCN)NC(=O)[C@H](CC(C)C)NC(=O)[C@@H](Cc2ccccc2)NC(=O)[C@H](CCN)NC1=O)[C@@H](C)O [compound 9032, nC8CO-L-Dab-L-Thr-L-Dab-cyc[L-Dab-L-Dab-D-Phe-L-Leu-L-Dab-L-Dab-L-Trp]] (Nonanoyl-[Dab]T[Dab][Dab][Dab][dF]L[Dab][Dab]W; lactam 4-C) | 8 (≈ 6.21 µM) | 8 (≈ 6.21 µM) | 4 (≈ 3.1 µM) | 8 (≈ 6.21 µM) | 8 (≈ 6.21 µM) | 8 (≈ 6.21 µM) | 4 (≈ 3.1 µM) | 4 (≈ 3.1 µM) | 2 (≈ 1.55 µM) | 2 (≈ 1.55 µM) | 16 (≈ 12.4 µM) |  |  |  |  |  |  |  |  | MIC P. aeruginosa GN_043, PmxR ([5]; polymyxin-resistant): 1 µg/mL (≈ 0.776 µM)
